Laboratory results: PMC5522427, “Structural and Functional Analysis of Latex Clearing Protein (Lcp) Provides Insight into the Enzymatic Cleavage of Rubber” (Scientific Reports, 2017)

Target: T1, LcpK30 (Streptomyces sp. K30, UniProt Q3L8N0)
T1 construct: gene lcp; monomer; residues 31-403 modelled; haem b
Assay: crystal structure of complex ([…] Å); EPR
Assay type: binding
Settings: open state; imidazole coordinates haem iron as distal axial ligand, replacing Lys167; 0.2 M malate/imidazole pH 7.5 (crystal); 1 mM imidazole (EPR); ferric as isolated

T1 sequence (Q3L8N0 31-407): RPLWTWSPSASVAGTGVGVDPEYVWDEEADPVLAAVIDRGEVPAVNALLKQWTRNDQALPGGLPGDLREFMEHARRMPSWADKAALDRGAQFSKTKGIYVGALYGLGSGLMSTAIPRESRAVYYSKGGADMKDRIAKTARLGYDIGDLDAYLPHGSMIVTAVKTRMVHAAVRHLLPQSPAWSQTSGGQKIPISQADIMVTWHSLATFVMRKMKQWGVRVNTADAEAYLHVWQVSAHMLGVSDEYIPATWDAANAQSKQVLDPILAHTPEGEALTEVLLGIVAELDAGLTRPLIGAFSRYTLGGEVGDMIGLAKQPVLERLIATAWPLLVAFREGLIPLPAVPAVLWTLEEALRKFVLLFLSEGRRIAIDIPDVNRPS

c1c[nH]cn1 [imidazole]
crystal structure of complex (1.48 Å); EPR: the distal axial position at the haem iron was now occupied by an imidazole molecule
